This note sets out measurements from patent publication US20060183902A1, “Dihydroindolyl methanones as alpha 1a/1d adrenoreceptor modulators for the treatment of benign prostatic hypertrophy and lower urinary tract symptoms” (priority 2005, published 2006).

The target of one experiment is T1, α1b-AR (Homo sapiens, UniProt P35368).
T1 construct: expressed in transfected cells; host or cells: COS-7
T1 sequence (P35368 1-520): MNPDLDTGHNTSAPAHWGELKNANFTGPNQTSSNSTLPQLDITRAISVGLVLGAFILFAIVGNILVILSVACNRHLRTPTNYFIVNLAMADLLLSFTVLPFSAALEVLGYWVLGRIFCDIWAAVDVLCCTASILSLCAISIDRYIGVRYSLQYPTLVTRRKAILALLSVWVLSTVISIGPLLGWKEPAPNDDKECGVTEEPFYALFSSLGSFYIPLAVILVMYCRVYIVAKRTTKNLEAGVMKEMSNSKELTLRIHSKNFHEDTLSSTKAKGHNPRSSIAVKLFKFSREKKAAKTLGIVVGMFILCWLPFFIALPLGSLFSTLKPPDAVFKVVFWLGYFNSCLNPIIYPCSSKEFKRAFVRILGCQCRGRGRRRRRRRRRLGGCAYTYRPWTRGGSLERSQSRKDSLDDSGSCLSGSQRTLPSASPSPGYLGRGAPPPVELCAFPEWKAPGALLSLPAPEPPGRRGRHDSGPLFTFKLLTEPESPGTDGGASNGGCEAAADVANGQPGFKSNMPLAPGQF
Put plainly: α1-Adrenergic receptor radio-ligand (125I-HEAT) binding assay, α1b subtype. To be noted: COS-7 cell membranes transfected with α1b-AR, 125I-HEAT 50 pM; read-out: Receptor Binding, Ki α1b-AR. As for the experimental part:
(§1) Membranes were prepared from COS-7 cells (African Green monkey kidney SV40-transformed cells) that had been transfected with one of the three α1-AR subtypes by the following method:
(§2) COS cells from ten 100 mm tissue culture plates were scraped into a 5 mL volume of TE (a mixture of 50 mM tris(hydroxymethyl)aminomethane hydrochloride (Tris-HCl) and 5 mM ethylenediaminetetraacetic acid (EDTA) at pH 7.4). The cell suspension was disrupted with a Brinkman Polytron (at a setting of 8) for 10 sec. The disrupted cells were centrifuged at 1000×g for 10 min at 4° C. Supernatants were centrifuged at 34,500×g for 20 min at 4° C. The membrane pellets were suspended in a 2 mL volume of TNE (a mixture of 50 mM Tris-HCl, 5 mM EDTA and 150 mM NaCl at pH7.4). An aliquot of the membrane suspension was stored at −70° C. until use. The protein concentration was determined using a BioRad “DC” protein assay kit following membrane solubilization with Triton X-100.
(§3) Triplicate determinations of radio-ligand binding in the presence of increasing concentrations of testing compound were made. The reagents were added to 96-well polypropylene plate wells. Each assay well contained 140 μL TNE, 25 μL ^125I-2-(β-4-hydroxyplenyl)ethylaminomethyltetralone (^125I-HEAT) (specific activity 2200 Ci/mmol, Dupont-New England Nuclear, 50 pM final), 10 μL testing compound dissolved in dimethyl sulfoxide (DMSO) (1 pM to 10 μM in half-log increments, final), and 25 μL appropriate α1-AR membrane subtype suspension in TNE (0.5 ng/μL for the α1a and α1b subtypes and 13 ng/μL for the α1d subtype). The plate was incubated at rt for 1 hr. The contents of the wells were filtered through a glass filter (type C) (GF/C) membrane Unifilter plate (Packard Instruments) using the Packard Filtermate cell harvester. The filter plates were dried in a vacuum oven for 30 min at 40° C. 25 μL Microscint 20 liquid scintillation fluid (Packard Instuments) was added to each well. The radioactive content was analyzed in the TopCount microplate scintillation counter (Packard Instruments).
(§4) The Ki values (in nM) shown in Table 1 were determined using GraphPad Prism software.

Another experiment has as its target T2, α1d-AR (Homo sapiens, UniProt P25100).
T2 construct: expressed in transfected cells; host or cells: COS-7
T2 sequence (P25100 1-572): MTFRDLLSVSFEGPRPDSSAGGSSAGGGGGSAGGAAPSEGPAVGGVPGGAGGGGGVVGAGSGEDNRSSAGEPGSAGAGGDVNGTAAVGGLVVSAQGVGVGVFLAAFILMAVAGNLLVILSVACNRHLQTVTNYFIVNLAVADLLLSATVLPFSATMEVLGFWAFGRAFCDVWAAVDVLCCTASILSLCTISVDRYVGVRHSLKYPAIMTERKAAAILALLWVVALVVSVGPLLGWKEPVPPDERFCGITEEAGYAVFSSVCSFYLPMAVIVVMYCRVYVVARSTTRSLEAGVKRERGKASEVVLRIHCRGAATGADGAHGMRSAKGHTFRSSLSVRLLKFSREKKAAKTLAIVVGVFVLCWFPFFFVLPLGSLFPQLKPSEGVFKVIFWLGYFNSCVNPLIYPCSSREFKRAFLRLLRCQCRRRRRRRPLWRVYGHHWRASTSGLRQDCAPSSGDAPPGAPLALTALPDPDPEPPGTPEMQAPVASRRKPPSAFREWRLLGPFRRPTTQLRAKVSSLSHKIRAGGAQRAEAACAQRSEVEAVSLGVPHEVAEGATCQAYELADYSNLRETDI
Briefly: α1-Adrenergic receptor radio-ligand (125I-HEAT) binding assay, α1d subtype. The note with it: COS-7 cell membranes transfected with α1d-AR, 125I-HEAT 50 pM; read-out: Receptor Binding, Ki α1d-AR. As for the experimental part: as §1, §2, §3, §4

In the next experiment the target is T3, α1a-AR (Homo sapiens, UniProt P35348).
T3 construct: expressed in transfected cells; host or cells: COS-7
T3 sequence (P35348 1-466): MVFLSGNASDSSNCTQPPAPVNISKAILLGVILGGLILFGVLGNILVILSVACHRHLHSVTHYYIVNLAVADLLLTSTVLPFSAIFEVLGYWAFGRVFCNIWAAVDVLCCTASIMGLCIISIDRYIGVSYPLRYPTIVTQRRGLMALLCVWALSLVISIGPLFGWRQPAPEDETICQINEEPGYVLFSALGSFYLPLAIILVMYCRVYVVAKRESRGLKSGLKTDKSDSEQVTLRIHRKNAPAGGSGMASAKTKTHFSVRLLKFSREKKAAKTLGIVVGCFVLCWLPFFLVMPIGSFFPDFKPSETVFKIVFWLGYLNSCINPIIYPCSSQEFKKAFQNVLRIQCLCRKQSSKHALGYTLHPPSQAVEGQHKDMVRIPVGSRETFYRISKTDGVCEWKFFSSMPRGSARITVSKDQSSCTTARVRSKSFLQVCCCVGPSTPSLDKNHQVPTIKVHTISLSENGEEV
Briefly: α1-Adrenergic receptor radio-ligand (125I-HEAT) binding assay, α1a subtype. To be noted: COS-7 cell membranes transfected with α1a-AR, 125I-HEAT 50 pM; read-out: Receptor Binding, Ki α1a-AR. As for the experimental part:
as §1, §2, §3, §4

Each structure is given as a SMILES string. “And” between values parts separate entries of the source, which are not always exact repeats. Equal entries are not always repeated.

As to `CC(C)Oc1ccccc1N1CCN(Cc2cccc(C(=O)N3CCc4ccc(N(C(=O)Nc5c(F)cccc5F)C(=O)Nc5c(F)cccc5F)cc43)c2)CC1` [Cpd 43, 3-(2,6-difluoro-phenyl)-1-(1-{3-[4-(2-isopropoxy-phenyl)-piperazin-1-ylmethyl]-benzoyl}-2,3-dihydro-1H-indol-6-yl)-1-(2,6-difluorophenylaminocarbonyl)-urea], the Ki (usually a dissociation constant, usually derived from enzyme kinetics or from competition with a known ligand) on α1b-AR is 0.204 µM and 0.185 µM; at α1d-AR, 0.0028 µM and 0.0032 µM; on α1a-AR it was 0.0078 µM and 0.0034 µM.

On to `CC(C)Oc1ccccc1N1CCN(Cc2cccc(C(=O)N3CCc4ccc(NS(=O)(=O)c5c(F)cccc5F)cc43)c2)CC1` [Cpd 45, 2,6-difluoro-N-(1-{3-[4-(2-isopropoxy-phenyl)-piperazin-1-ylmethyl]-benzoyl}-2,3-dihydro-1H-indol-6-yl)-benzenesulfonamide], for which the Ki on α1b-AR turned out to be 0.888 µM; on α1d-AR it was 0.004 µM; at α1a-AR, 0.0026 µM.

For the molecule `Cc1ccc(S(=O)(=O)Nc2ccc3c(c2)N(C(=O)c2cccc(CN4CCN(c5ccccc5OC(C)C)CC4)c2)CC3)cc1` [Cpd 46, N-(1-{3-[4-(2-isopropoxy-phenyl)-piperazin-1-ylmethyl]-benzoyl}-2,3-dihydro-1H-indol-6-yl)-4-methyl-benzenesulfonamide], the Ki was 0.242 µM at α1b-AR, 0.0056 µM at α1d-AR and 0.0059 µM at α1a-AR.

As for `CCS(=O)(=O)Nc1ccc2c(c1)N(C(=O)c1cccc(CN3CCN(c4ccccc4OC(C)C)CC3)c1)CC2` [Cpd 47, ethanesulfonic acid (1-{3-[4-(2-isopropoxy-phenyl)-piperazin-1-ylmethyl]-benzoyl}-2,3-dihydro-1H-indol-6-yl)-amide], the inhibition constant (Ki) turned out to be 0.23 µM on α1b-AR, 0.0026 µM at α1d-AR and 0.0023 µM on α1a-AR.

For `CC(C)Oc1ccccc1N1CCN(Cc2cccc(C(=O)N3CCc4ccc(NC(=O)c5ccc(F)cc5)cc43)c2)CC1` [Cpd 48, 4-fluoro-N-(1-{3-[4-(2-isopropoxy-phenyl)-piperazin-1-ylmethyl]-benzoyl}-2,3-dihydro-1H-indol-6-yl)-benzamide], the figures for the Ki on α1b-AR, on α1d-AR and at α1a-AR were 0.889 µM, 0.006 µM and 0.074 µM, respectively.

`CC(C)Oc1ccccc1N1CCN(Cc2cccc(C(=O)N3CCc4ccc(NC(N)=O)cc43)c2)CC1` [Cpd 49, (1-{3-[4-(2-isopropoxy-phenyl)-piperazin-1-ylmethyl]-benzoyl}-2,3-dihydro-1H-indol-6-yl)-urea]: the Ki at α1b-AR was 0.351 µM; at α1d-AR, 0.013 µM; on α1a-AR it was 0.014 µM.

As to `COc1ccccc1C1CCN(Cc2ccc(C(=O)N3CCc4ccccc43)cc2)CC1` [Cpd 50, (2,3-dihydro-indol-1-yl)-{4-[4-(2-methoxy-phenyl)-piperidin-1-ylmethyl]-phenyl}-methanone], the Ki on α1b-AR was 0.458 µM; on α1d-AR, 0.032 µM; on α1a-AR, 0.0078 µM.

For the molecule `CC(C)Oc1ccccc1C1CCN(Cc2cccc(C(=O)N3CCc4ccccc43)c2)CC1` [Cpd 51, (2,3-dihydro-indol-1-yl)-{3-[4-(2-isopropoxy-phenyl)-piperidin-1-ylmethyl]-phenyl}-methanone], the Ki on α1b-AR was 0.106 µM; on α1d-AR it was 0.0016 µM; at α1a-AR, 0.0008 µM.

Take `CC(C)Oc1ccccc1CN1CCN(Cc2ccc(C(=O)N3CCc4ccccc43)cc2)CC1` [Cpd 52, (2,3-dihydro-indol-1-yl)-{4-[4-(2-isopropoxy-benzyl)-piperazin-1-ylmethyl]-phenyl}-methanone]: the Ki at α1b-AR is 1.73 µM; on α1d-AR, 0.159 µM; at α1a-AR, 0.122 µM.

For the molecule `COc1ccccc1CN1CCN(Cc2ccc(C(=O)N3CCc4ccccc43)cc2)CC1` [Cpd 53, (2,3-dihydro-indol-1-yl)-{4-[4-(2-methoxy-benzyl)-piperazin-1-ylmethyl]-phenyl}-methanone], the Ki at α1b-AR amounted to 0.104 µM; at α1d-AR, 0.096 µM; at α1a-AR, 0.082 µM.

Regarding `O=C(c1ccc(CN2CCN(c3ccccc3OCC(F)(F)F)CC2)cc1)N1CCc2ccccc21` [Cpd 55, (2,3-dihydro-indol-1-yl)-(4-{4-[2-(2,2,2-trifluoro-ethoxy)-phenyl]-piperazin-1-ylmethyl}-phenyl)-methanone], the Ki was found to be 0.31 µM at α1b-AR, 0.043 µM at α1d-AR and 0.0255 µM on α1a-AR.

As for `CC(C)Oc1ccccc1CN1CCN(Cc2cccc(C(=O)N3CCc4ccccc43)c2)CC1` [Cpd 56, (2,3-dihydro-indol-1-yl)-{3-[4-(2-isopropoxy-benzyl)-piperazin-1-ylmethyl]-phenyl}-methanone], the Ki worked out at 0.655 µM on α1b-AR, 1.91 µM at α1d-AR and 1.2 µM on α1a-AR.

`CC(C)Oc1ccccc1C1CCN(Cc2cccc(C(=O)N3CCc4ccc(NCc5ccccc5F)cc43)c2)CC1` [Cpd 57, [6-(2-fluoro-benzylamino)-2,3-dihydro-indol-1-yl]-{3-[4-(2-isopropoxy-phenyl)-piperidin-1-ylmethyl]-phenyl}-methanone]: the Ki stood at 0.237 µM on α1b-AR, 0.0014 µM on α1d-AR and 0.0018 µM at α1a-AR.

For `CC(C)Oc1ccccc1C1CCN(Cc2cccc(C(=O)N3CCc4ccc(NS(=O)(=O)c5c(F)cccc5F)cc43)c2)CC1` [Cpd 58, 2,6-difluoro-N-(1-{3-[4-(2-isopropoxy-phenyl)-piperidin 1-ylmethyl]-benzoyl}-2,3-dihydro-1H-indol-6-yl)-benzenesulfonamide], the Ki at α1b-AR was 0.234 µM and 0.255 µM; on α1d-AR it was 0.0019 µM and 0.001 µM; at α1a-AR, 0.0008 µM and 0.0005 µM.

In the case of `COc1ccccc1C1CCN(Cc2cccc(C(=O)N3CCc4ccc(NCc5ccccc5F)cc43)c2)CC1` [Cpd 59, [6-(2-fluoro-benzylamino)-2,3-dihydro-indol-1-yl]-{3-[4-(2-methoxy-phenyl)-piperidin-1-ylmethyl]-phenyl}-methanone], the Ki was determined as 0.101 µM on α1b-AR, 0.0011 µM at α1d-AR and 0.0083 µM on α1a-AR.
